The nature of data set [1]: Solubility measurement of crystalline Ibandronate polymorphs by suspension and complexometric titration. It is filed as physicochemical. The note with it: Polymorph A; water; 25° C., 24 h stirred + 24 h unstirred; listed as Ibandronate polymorph A, monosodium salt monohydrate. Here is the method:
The solubility of the individual crystalline Ibandronate polymorphs A and B was measured for various solutions. Approximately 10 g of the corresponding polymorph A or B were suspended in three different buffer solutions at pH 2, pH 4 (Titrisol-buffer, citrate/HCl), at pH 7 (methenamine buffer, HCl) or in water. The suspension was stirred for 24 hours at 25° C. and was kept additionally 24 hours without stirring at the same temperature. Solubility was calculated by titration according to the following method.
The residue was filtered, 2 ml of the filtrate taken, 5 ml of Titriplex III solution were added and diluted with water to 100 ml. 2 ml of this solution were added to approximately 0.1 ml of xylenol orange indicator and the pH was adjusted to 6.5 by adding small portions of methenamine buffer solution or 0.1 M hydrochloric acid. The solution is titrated immediately with Th-DCTA-xylenol orange complex until the color changes from yellow to reddish-violet. The endpoint is determined photometrically.

Data set [2] is described as follows: Relative thermodynamic stability of Ibandronate polymorphs. As to conditions: compared with polymorph B.

The structures appear in SMILES notation.

Take `CCCCCN(C)CCC(O)(P(=O)([O-])O)P(=O)(O)O.O.[Na+]` [Polymorph A, 3-(N-methyl-N-pentyl) amino-1-hydroxypropane-1,1-diphosphonic acid monosodium salt monohydrate]: the solubility entry in data set [1] is reported as “about 278 g/l”. Moreover, the thermodynamic stability result in data set [2] is on record as “thermodynamically more stable”.
